Source: US11207432B2, “Substituted organofluoroborates as imaging agents” (THE UNIVERSITY OF BRITISH COLUMBIA, priority 2013, dated 2021)

Assays:
[1] = Solvolytic defluoridation of fluoridated organotrifluoroborates by 19F-NMR; format: physicochemical; conditions: 200 mM phosphate buffer pH 7.5, 19F NMR; for k(solvolysis): pseudo-first-order fit; for half-life: solvolytic defluoridation, read-out: half-life, t1/2
Procedure: The following is are representative examples of testing of solvolytic defluoridation of fluoridated organoborates as shown in FIG. 1A to FIG. 1FF and Table 1. Solutions of the fluoridated organotrifluoroborates were made by dissolving 30 mg of the fluoridated organotrifluoroborate into 1 mL of 20% ethanol/acetonitrile.
As the fluoridated organotrifluoroborate salts were often contaminated with a significant amount of free fluoride, a silica column was used to remove the free fluoride from the organotrifluoroborate solution. After loading the crude reaction onto the silica column, the fractions containing the desired organotrifluoroborate were eluted and combined to form a combined solution. In view of the strong stability of the fluoridated organotrifluoroborate in organic solvent, 20% of the combined solution was stored in an NMR tube and this sample served as the “zero” minute time point. A purified organotrifluoroborate salt was isolated from the remaining portion of the combined solution (remaining 80% of the combined solution) by removing the organic solvent from the combined solution by vacuum. Removal of the organic solvent from the combined solution gave the purified fluoridated alkylbornate salt in the form of a white solid. The dry and purified fluoridated organotrifluoroborate salt was re-dissolved into 3 mL of 200 mM phosphate buffer. Solvolytic defluoridation started immediately upon dissolution of the fluoridated organotrifluoroborate salt into phosphate buffer, and accordingly, the time was recorded at the moment of dissolution. The progress of solvolytic defluoridation of the fluoridated organotrifluoroborate salt was monitored using ^19F NMR spectroscopy. General principles, methods and background relating to the use of ^19F NMR spectroscopy for monitoring defluoridation are known, and may be found in, for example, Ting et al. (2008, J. Org. Chem. 73; 4662-70; Harwig et al. (2008) Tetrahedron Letters 49:3152-56; and Ting et al. (2008) Journal of Fluorine Chemistry 129:349-58. For each time point, solvolytic defluoridation data was collected using a 300 MHz ^19F NMR spectrometer (Bruker). ^19F NMR spectroscopic tracers for the fluoridated organotrifluoroborate salt at different times are shown in FIG. 1A. Use of ^19F-NMR to measure solvolytic defluoridation provides a useful model for measuring solvolytic 18F-defluoridation because if one F is lost, all are lost. Moreover, it is understood that the kinetic isotope effect in terms of B—F bond solvolysis is negligible. […] The degree of solvolytic defluoridation of the fluoridated organotrifluoroborate salt was plotted as a function of time, for example, as shown in FIG. 1B for Compound 6 of Table 1. ^19F NMR spectroscopic tracers for the fluoridated organotrifluoroborate salts of compounds listed in Table 1 at different times are shown in FIGS. 1A, 1C, 1E, 1G, 1I, 1K, 1M, 1O, 1Q, 1S, 1U, 1W, 1Y, 1AA, 1CC, and 1EE, and the degree of solvolytic defluoridation of the compounds as a function of time is shown in FIGS. 1B, 1D, 1F, 1H, 1J, 1L, 1N, 1P, 1R, 1T, 1V, 1X, 1ZZ, 1BB, 1DD, and 1FF.
The time curves shown in FIGS. 1B and 1D were fitted and a rate constant, ksolvolysis, for each time curve was calculated. As a measure of the stability of the fluoridated organoborate to solvolytic defluoridation, pkB—F values were calculated using the equation pkB—F=−log(ksolvolysis). In addition to pkB—F values, observed solvolytic defluoridation half-life, t1/2, values and rate constants, ksolvolysis, for a number of different fluoridated organoborates are listed in Table 1.

[2] = pKa of the carboxylic acid carrying the same moiety as the RBF3 compound; cited from earlier work
[3] = Stability of Rhodamine-BF3 conjugates in plasma by TLC; format: in vitro ADME, mice; conditions: tested as Rhodamine B conjugate, 37° C., 2 hours, fluorescence analysis
Procedure: The symbols A, B, C represent Rhodamine-ArBF3, Rhodamine-PyrBF3, and […] of Table 1, respectively. The subscript numbers 1, 2, 3 represent different test conditions: Plasma 1, Plasma 2 and PBS buffer (Plasma 1 and Plasma 2 were acquired from different mice).
The following is a representative example of testing of solvolytic defluoridation of a fluoridated organotrifluoroborate as shown in FIG. 3. 2 nmol Rhodamine-BF3 was added into 100 μL plasma, and then incubated at 37° C. After 2 hours, 200 μL acetonitrile (ACN) was added to precipitate the protein from the solution. The crude was filtered with 40 μm filter paper, and then a reddish purple solution was achieved. 1 μL of this solution was loaded on the TLC plate. The TLC plate was developed by 15% methanol/DCM. The TLC chromatograms for an aryltrifluoroborate (Rhodamine-ArBF3), Rhodamine-PyrBF3, and a quaternary ammoniomethyltrifluoroborate (Rhodamine-Compound 10 of Table 1) are shown as FIG. 3.
In the TLC chromatograms, Rhodamine B was conjugated with the trifluoroborate to trace the decomposition. The hydrolyzed product lost the negative charge, and therefore migrated much more rapidly than the precursor.

[4] = Stability of 18F-radiolabeled organotrifluoroborate in plasma by HPLC; format: in vitro ADME; conditions: 18F-labelled, 37° C., 150 mins, in vitro test n=3
Procedure: 1.1 mCi of ^18F-Compound 10 (^18F-ammoniomethyltrifluoroborate) was mixed with 100 μL of plasma to form a ^18F-Compound 10-plasma mixture, and then incubated at 37° C. for two hours. 200 uL of acetonitrile (ACN) was then added to the ^18F-Compound 10-plasma mixture to precipitate the protein from the mixture. The precipated protein portion was separated from the mixture by filtration with 40 μm filter paper, and the clear filtrate was injected into an HPLC for stability analysis. Chromatograms for independent HPLC tests of Rhodamine-Compound 10 of Table 1 at 0 minutes (A), 80 minutes (B), 150 minutes (C), 0 minutes (D), 150 minutes (E), and 150 minutes (F) are shown in FIG. 4A through FIG. 4F.

Row | SMILES | half-life [1] [h] | decomposition in plasma by HPLC [4] | pk (solvolysis) = −log k(solvolysis) [1] | k(solvolysis) [1] | pKa of Corresponding COOH [2] | decomposition (hydrolyzed product) on TLC after incubation in plasma [3]
1 | O=C(c1ccccc1)[B-](F)(F)F [Compound 8, benzoytrifluoroborate] |  |  | 4.0700 |  | 2.35 | 
2 | F[B-](F)(F)CBr [Compound 4, bromomethyltrifluoroborate] | 11 |  | 2.98 | 0.000768 min − 1 | 2.86 | 
3 | O=C(CCCCO)[B-](F)(F)F [Compound 5] | 38.5 |  | 3.5249 | 0.000298 min − 1 | 2.5 | 
4 | F[B-](F)(F)COCc1ccccc1 [Compound 3] | 2.42 |  | 2.32 | 0.00476 min − 1 | 3.53 | 
5 | C#CC[N+](C)(C)C[B-](F)(F)F [Compound 10] | 367 | almost no decomposition was observed | 4.5036 | 3.14 × 10^−5 min − 1 | 1.83 | almost no hydrolyzed product was detected
6 | C=C[B-](F)(F)F [Compound 2, vinyltrifluoroborate] | 0.117 |  | 1.01 | 0.099 min − 1 | 4.25 | 
7 | CC[NH+](CC)C[B-](F)(F)F [Compound 6] | 65.5 |  | 3.7554 | 0.000175 min − 1 | 2.34 | 
8 | CCCC[B-](F)(F)F [Compound 1, butyltrifluoroborate] | 0.0383 to 0.05 |  | 0.52 | 0.3 min − 1 | 4.81 | 
9 | F[B-](F)(F)C(Cl)Cl [Compound 11] | 2500 |  | 5.3372 | 4.6 × 10^−5 min − 1 | 1.29 | 

Continued, in another order:

Row | half-life [1] [h] | decomposition in plasma by HPLC [4] | SMILES | pk (solvolysis) = −log k(solvolysis) [1] | k(solvolysis) [1] | pKa of Corresponding COOH [2] | decomposition (hydrolyzed product) on TLC after incubation in plasma [3]
10 | 7670 |  | C[S+](C[B-](F)(F)F)c1ccccc1 (stereo not shown) [Compound 12] | 5.82 | 1.5 × 10^−5 min − 1 |  | 
11 | 5.77 |  | C[N+](C)(CC(=O)O)C[B-](F)(F)F [Compound 17] | 2.70 | 0.0020 min − 1 |  | 
12 | 47 |  | C#CC[N+](C)(C[B-](F)(F)F)C[B-](F)(F)F [Compound 18] | 3.61 | 0.000246 min − 1 |  | 
13 | 178 |  | F[B-](F)(F)C[n+]1ccccc1 [Compound 14] | 4.19 | 6.45 × 10^−5 min − 1 | 2.14 | 
14 | 172 |  | COC(=O)C[N+](C)(C)C[B-](F)(F)F [Compound 16] | 4.17 | 0.0000673 min − 1 |  | 
15 | 4.43 |  | C[n+]1ccn(C[B-](F)(F)F)c1 [Compound 15] | 2.59 | 0.00259 min − 1 |  | 
